From ChEMBL document CHEMBL3864161, “5-Aminopyrazole-4-carboxamide analogues are selective inhibitors of Plasmodium falciparum microgametocyte exflagellation and potential malaria transmission blocking agents” (Bioorg Med Chem Lett, 2016) come the findings set out here.

Some results are limits rather than exact numbers.

Series [1] in a line: Cytotoxicity against human CRL8155 cells assessed as growth inhibition after 48 to 72 hrs by Alamar blue assay. The series is classed as toxicity, cell-based.
Series [2] can be described thus: Cytotoxicity against human HepG2 cells assessed as growth inhibition after 48 to 72 hrs by Alamar blue assay. In kind it is toxicity, cell-based.
A short description of series [3]: Inhibition of recombinant Plasmodium falciparum CDPK4 S147M mutant using Syntide 2 as substrate assessed as decrease in depletion of ATP by Kinase glo luciferase assay. (In general: Kinase-Glo reads ATP consumption through a luciferase reaction.)
The subject of series [4] is Plasmodium falciparum. The series is described as follows: Inhibition of male gametocytes exflagellation of Plasmodium falciparum at 1 uM relative to control. In kind it is functional.
In series [5] the test system is Plasmodium falciparum. The series is described as follows: microbe, parasite or virus in culture. Particulars: read-out: INH.
Series [6] has as its target T1, Calmodulin-domain protein kinase 1 (Toxoplasma gondii, UniProt Q9BJF5).
T1 sequence (Q9BJF5 whole entry): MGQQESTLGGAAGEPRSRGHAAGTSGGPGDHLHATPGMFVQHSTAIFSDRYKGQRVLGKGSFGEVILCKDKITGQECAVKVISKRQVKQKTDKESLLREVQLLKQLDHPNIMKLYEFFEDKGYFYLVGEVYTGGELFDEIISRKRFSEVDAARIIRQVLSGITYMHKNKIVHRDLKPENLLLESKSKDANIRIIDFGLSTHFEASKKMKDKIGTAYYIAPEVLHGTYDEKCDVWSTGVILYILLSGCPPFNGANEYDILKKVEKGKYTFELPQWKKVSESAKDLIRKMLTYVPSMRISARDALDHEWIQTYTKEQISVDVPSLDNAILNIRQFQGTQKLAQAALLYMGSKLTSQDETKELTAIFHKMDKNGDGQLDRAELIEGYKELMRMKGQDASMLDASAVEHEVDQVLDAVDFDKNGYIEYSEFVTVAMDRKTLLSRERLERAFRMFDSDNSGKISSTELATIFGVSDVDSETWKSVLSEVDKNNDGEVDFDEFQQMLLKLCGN

In series [7] the target is Proto-oncogene tyrosine-protein kinase Src (Homo sapiens, UniProt P12931).
Chain of Proto-oncogene tyrosine-protein kinase Src (P12931 2-536 limits assumed): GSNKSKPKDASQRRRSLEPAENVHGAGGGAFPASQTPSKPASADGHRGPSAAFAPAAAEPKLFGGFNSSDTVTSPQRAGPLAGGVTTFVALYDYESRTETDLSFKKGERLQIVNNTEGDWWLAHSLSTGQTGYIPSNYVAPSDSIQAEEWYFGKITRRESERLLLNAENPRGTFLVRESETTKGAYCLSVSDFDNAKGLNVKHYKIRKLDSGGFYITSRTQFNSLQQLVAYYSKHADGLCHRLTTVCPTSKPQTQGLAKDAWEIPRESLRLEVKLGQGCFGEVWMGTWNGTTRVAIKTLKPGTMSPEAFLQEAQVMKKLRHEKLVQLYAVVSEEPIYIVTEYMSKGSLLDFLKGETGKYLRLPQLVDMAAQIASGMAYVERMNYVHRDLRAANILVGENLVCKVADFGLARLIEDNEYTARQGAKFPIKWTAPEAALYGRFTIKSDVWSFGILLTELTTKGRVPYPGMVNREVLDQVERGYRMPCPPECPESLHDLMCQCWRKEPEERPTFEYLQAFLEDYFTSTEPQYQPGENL

As a reminder, the EC50 is the midpoint of the concentration-response curve. In general, IC50 refers to the concentration needed to halve the response being measured. For the compound `CCOc1ccc2cc(-c3nn(C(C)(C)C)c(N)c3C(N)=O)ccc2c1`, the EC50 in series [1] and in series [2] was > 30 µM each time. The IC50 in series [3] was > 2 µM. Also, the inhibition at 1 µM with Plasmodium falciparum [4] was found to be 87%.
As to `NC(=O)c1c(-c2ccc3ccccc3c2)nn(CC(F)(F)F)c1N`, the concentration giving a half-maximal response (EC50) in series [1] and in series [2] was > 30 µM in each case. Further, the IC50 in series [3] was > 2 µM. In the series on Plasmodium falciparum [4], this compound returned an inhibition at 1 µM of 87%.
For `CC(C)(C)n1nc(-c2ccc3cc(O)ccc3c2)c(C(N)=O)c1N`, the EC50 in series [1] and in series [2] was > 30 µM each time. Also, in series [3], the IC50 was > 2 µM. The same compound had an inhibition at 1 µM in the series on Plasmodium falciparum [4] of 87%. For the same compound, the inhibition at 0.1 µM in the series on Plasmodium falciparum [5] turned out to be 64%.
For the compound `CCOc1ccc2cc(-c3nn(C(C)(C)C)c(N)c3C(N)=O)cnc2c1`, the EC50 in series [1] and in series [2] was > 30 µM each time. Moreover, the IC50 in series [3] is > 2 µM.
As for `CCOc1ccc2cc(-c3nn(C(C)C)c(N)c3C(N)=O)ccc2n1`, in series [6], the IC50 was determined as 0.007 µM.
With `CC(C)(C)n1nc(-c2ccc3nc(OC4CC4)ccc3c2)c(C(N)=O)c1N`, the IC50 in series [6] came out at 0.005 µM.
For the compound `CC(C)(C)n1nc(-c2cnc3cc(OC4CC4)ccc3c2)c(C(N)=O)c1N`, the EC50 in series [1] and in series [2] was > 30 µM each time. The half-maximal inhibitory concentration (IC50) in series [3] is > 2 µM.
`CCOc1ccc2cc(-c3nn(C(C)C)c(N)c3C(N)=O)cnc2c1`: the EC50 in series [1] and in series [2] was > 30 µM throughout. Besides, the IC50 in series [3] was > 2 µM. In the series with Plasmodium falciparum [4], the inhibition at 1 µM amounted to 87%.
Take `COc1ccc2cc(-c3nn(C(C)(C)C)c(N)c3C(N)=O)cnc2c1`: the half-maximal effective concentration (EC50) in series [1] and in series [2] was > 30 µM throughout. Moreover, in series [3], the concentration for half-maximal inhibition (IC50) was > 2 µM. Moreover, in the series with Plasmodium falciparum [4], the inhibition at 1 µM stood at 87%.
For `CCOc1ccc2cc(-c3nn(CC(C)(C)CO)c(N)c3C(N)=O)cnc2c1`, the results for the IC50 in series [7] and in series [3] were > 10 µM and > 2 µM, respectively. The EC50 in series [1] and in series [2] was > 30 µM throughout. Moreover, in the series on Plasmodium falciparum [4], the inhibition at 1 µM came to 87%. Also, the inhibition at 0.1 µM in the series with Plasmodium falciparum [5] was found to be 81%.
Regarding `CCOc1ccc2cc(-c3nn(C4CCCCC4)c(N)c3C(N)=O)ccc2n1`, the EC50 in series [1] and in series [2] was > 30 µM throughout. In addition, the values for the IC50 in series [3] and in series [6] were > 2 µM and 0.006 µM, respectively. Besides, in the series on Plasmodium falciparum [4], the inhibition at 1 µM is 87%. In the series with Plasmodium falciparum [5], the inhibition at 0.1 µM amounted to 39%.
Turning to `CC(C)n1nc(-c2ccc3nc(OC4CCC4)ccc3c2)c(C(N)=O)c1N`, the EC50 in series [1] and in series [2] was > 30 µM each time. Moreover, the half-maximal inhibitory concentration (IC50) in series [3] was > 2 µM; in series [6] it was 0.008 µM. The inhibition at 1 µM in the series on Plasmodium falciparum [4] came out at 87%.
In series [6], `CCOc1ccc2cc(-c3nn(C(C)C4CC4)c(N)c3C(N)=O)cnc2c1` (stereo unspecified) gave an IC50 of 0.014 µM.
Compound `CCOc1ccc2cc(-c3nn(C(C)C(C)C)c(N)c3C(N)=O)cnc2c1` (stereo unspecified) gave an IC50 in series [6] of 0.018 µM.
In the case of `CCOc1ccc2cc(-c3nn(C4CCOC4)c(N)c3C(N)=O)cnc2c1` (stereo unspecified), the figures for the IC50 in series [7] and in series [6] were > 10 µM and 0.012 µM, respectively.
Take `CCOc1ccc2cc(-c3nn(C(C)C(C)(C)CO)c(N)c3C(N)=O)cnc2c1` (stereo unspecified): in series [6], the IC50 was 0.024 µM.
